“Also recorded” adds a separate entry of the source. Like-named read-outs stand apart in the source and are kept apart here.
Tests used:
[1] = Subplantar edema caused by carrageenan (antiinflammatory activity); assay type: in vivo; design: Volume of Paw in No. of Hours after the Treatment: 0 / Volume of Paw in No. of Hours after the Treatment: 1 / Volume of Paw in No. of Hours after the Treatment: 2 / Volume of Paw in No. of Hours after the Treatment: 3 / Volume of Paw in No. of Hours after the Treatment: 4 / Volume of Paw in No. of Hours after the Treatment: 5: dose or concentration left out as unconfirmed; conditions: rats, oral; for AREA % Inhibition vs. Control / AREA Absolute Value: paw volume 0-5 h, acetylsalicylic acid 250, ibuprofen 100, paracetamol 100, diflunisal 25, MR 713 25 mg/kg
Source text: The experiments have been carried out with rats and carrageenan has been used as the agent causing edema.
Subplantar Edema Caused by Carrageenan in Rats

[2] = Contorsions caused by phenylquinone (analgesic activity); assay type: in vivo; conditions: mice, oral; phenylquinone 30 min after; acetylsalicylic acid 250, ibuprofen 100, paracetamol 100, diflunisal 25, MR 713 25 mg/kg
Source text: The analgesic activity has been tested in mice using the contorsion test caused by phenylquinone. […] Phenylquinone has been administered thirty minutes after the substance under test and the results obtained are reported in Table II.
Contorsions Caused by Phenylquinone in Mice

[3] = Acute toxicity, oral; assay type: in vivo; conditions: mice
[4] = Plasmatic levels half-life, oral; assay type: in vivo; conditions: rats, at equal dose
Method: The pharmacodynamic tests carried out in rats and administering MR 713 by the oral route in the doses of 25, 50, and 100 mg/kg, show a half-life time of plasmatic levels, which is possible to calculate in the dose of 25 mg/kg, of about eleven hours. […] The pharmacodynamic tests permit to administer one or at the most two daily doses of MR 713.

[5] = Solubility; assay type: physicochemical
[6] = rats fasted 18 h, oral, 6 h, MR 713 25 mg/kg

Row | SMILES | AREA % Inhibition vs. Control [1] [%] | AREA Absolute Value [1] | % Inhibition vs. Controls (contorsions) [2] [%] | Average No. of Contorsions [2] | No. of Animals with Contorsions [2] | Average Size of Ulcer in mm (rat, in vivo, po, 25 mg/kg) [mm] | gastric lesions / gastric tolerability [6] | also measured
1 | CC(C)Cc1ccc(C(C)C(=O)O)cc1 (stereo not shown) [Ibuprofen, ibuprofen] | 40.0 | 163.7 | 99.1 | 0.2 ± 0.1 | 2/10 | 2.3 ± 0.7 | cause gastric lesions | –
2 | O=C(O)COc1ccc(-c2ccc(F)cc2F)cc1 [MR 713, (2',4'-difluoro-4-biphenyl)oxyacetic acid] | 31.0 | 186.4 | 54.0 | 10.8 ± 2.8 | 9/10 | 0.3 ± 0.1 | – | antiinflammatory activity compared with reference drugs ([1]; MR 713 25 mg/kg, vs diflunisal same dose, paracetamol and ibuprofen four times larger dose, acetylsalicylic acid ten times larger dose, 25 mg/kg): essentially the same as diflunisal; also recorded: substantially superior to paracetamol even when the latter is used in doses four times larger; also recorded: lower than that of ibuprofen; also recorded: essentially equivalent to the activity of acetylsalicylic acid; acute toxicity [3]: very low acute toxicity; LD50 ([3]; mouse, in vivo, body weight, read-out: DL50 (the source's name)): 790 mg/kg; half-life time of plasmatic levels, compared with other drugs [4]: substantially superior to the action of diflunisal; solubility in chlorinated hydrocarbons ([5]; chlorinated hydrocarbons): insoluble; solubility in hot lower alcohols ([5]; hot lower alcohols): soluble; solubility in water ([5]; water): essentially insoluble; gastric lesions / gastric tolerability (rat, in vivo, po, 25 mg/kg): causes even less gastric lesions as compared with drugs which are well-known to be tolerated at the gastric level, such as paracetamol and diflunisal
3 | CC(=O)Nc1ccc(O)cc1 [Paracetamol, p-acetylaminophenol] | 10.0 | 245.7 | 63.4 | 8.6 ± 3.3 | 5/10 | 0.6 ± 0.4 | – | –
4 | CC(=O)Oc1ccccc1C(=O)O [acetylsalicylic acid, acetyl salicylic acid] | 33.0 | 182.4 | 100 | 0 | 0/10 | 3.7 ± 0.8 | cause gastric lesions | –
5 | O=C(O)c1cc(-c2ccc(F)cc2F)ccc1O [Diflunisal, diflunisal] | 30.0 | 190.7 | 99.1 | 0.2 ± 0.2 | 1/9 | 0.7 ± 0.4 | – | Volume of Paw in No. of Hours after the Treatment: 0 ([1]; 0 h): 21.2; Volume of Paw in No. of Hours after the Treatment: 1 ([1]; 1 h): 25.6; Volume of Paw in No. of Hours after the Treatment: 2 ([1]; 2 h): 29.7; Volume of Paw in No. of Hours after the Treatment: 3 ([1]; 3 h): 31.0; Volume of Paw in No. of Hours after the Treatment: 4 ([1]; 4 h): 33.4; Volume of Paw in No. of Hours after the Treatment: 5 ([1]; 5 h): 33.1

Reference: US4440786A, “Compounds with antiinflammatory and analgesic activity, process for the preparation thereof and pharmaceutical compositio ns therefrom” (Ausonia Farmaceutici s.r.l., priority 1981, dated 1984)
